{"source": "patent US20140295045A1", "about": "“Pyridine Derivatives With Umami Flavour” (Givaudan S.A., priority 2009, published 2014)", "assay_type_in_all_cases": "in vivo, human", "key": {"trained sensory panel [1]": {"system": "trained sensory panel", "experiment": "Testing of compounds: tasting of 0.3% NaCl solution with 2 ppm compound by trained sensory panel", "conditions": "2 ppm compound in a solution of 0.3% NaCl; trained sensory panel of 20 women", "method": "Various compounds prepared in the previous examples were tested. Two solutions were prepared: A: a solution of 0.3% NaCl, B: a solution of 0.3% NaCl and 2 ppm compound as per Table 1. The samples were tasted by a trained sensory panel composed of 20 women aged between 30 and 60."}, "bench-top tasting panel [2]": {"system": "bench-top tasting panel", "experiment": "Model chicken broth (no MSG added, 0.3% sugar added), blind umami ranking", "conditions": "for Level preferred by panelists in this base: model chicken broth, 0.3% sugar added, % by weight", "method": "(§1) The following compositions are made and tested. Using a bench-top tasting panel (consisting of 10 panelists—flavorists, application experts), panelists were asked to record the sensory attribute differences (umami) between the samples. All samples were tasted blind and ranked on umami. Model Chicken Broth—no MSG Added, 0.3% Sugar Added The model chicken broth powder was prepared from 11.9 g chicken fat, 23.81 g salt, 14.29 g sugar, 0.95 g onion powder, 49.01 g chicken powder, 0.04 g turmeric powder. To prepare the model chicken broth 2.0 g of powder was mixed 98.0 g hot water."}, "bench-top tasting panel [3]": {"system": "bench-top tasting panel", "experiment": "Model chicken broth (no MSG added, no sugar added), blind umami ranking", "conditions": "for Level preferred by panelists in this base: model chicken broth, no MSG added, % by weight", "method": "as §1, with “no” for “0.3%”"}, "[4]": {"system": "small group of flavourists", "experiment": "Tomato soup formulation tasting against reference soup", "conditions": "1.5 ppm compound in tomato soup containing MSG; 4 flavourists", "method": "A tomato soup mix was prepared from 9.4 g sodium chloride, 1 g MSG, 0.08 g ribonucleotides (ex yeast), 32 g tomato powder (ex Spreda), 25.1 g glucose, 21 g starch (Ultrasperse™ 5 ex National Starch), 5 g palm fat powder, 3 g yeast powder, 1 g onion powder, 0.15 g carrot powder, 0.05 g ground white pepper, 0.3 g celery extract powder, 0.05 g ground laurel leaf powder, and 1.85 g sucrose. 25 g of the well-mixed ingredients was added to 250 g of boiling water and stirred until completely dissolved, to give a reference soup.\nThe reference soup was compared with a batch of the same soup containing 1.5 ppm of 1-(2-hydroxy-4-isobutoxyphenyl)-3-(pyridine-2-yl)propan-1-one."}, "bench-top tasting panel [5]": {"system": "bench-top tasting panel", "experiment": "Commercial organic chicken broth, blind umami ranking", "conditions": "for Level preferred by panelists in this base: commercial organic chicken broth, % by weight", "source_text": "The following compositions are made and tested. Using a bench-top tasting panel (consisting of 10 panelists—flavorists, application experts), panelists were asked to record the sensory attribute differences (umami) between the samples. All samples were tasted blind and ranked on umami. Commercial Organic Chicken Broth (Swanson's Certified Organic Chicken Broth—No added MSG, contains about 0.4% sugars)"}, "[6]": {"system": "small group of flavourists", "experiment": "Tomato ketchup tasting", "conditions": "2 ppm compound in tomato ketchup; 4 flavourists", "method": "A tomato ketchup was prepared from 19% tomato paste (28-30% dry weight), 8% vinegar (15%), 3% sodium chloride, 20% sugar and 50% water.\nTo one-half of the batch was added 2 ppm of 1-(2-hydroxy-4-methoxyphenyl)-3-(pyridin-2-yl)propan-1-one."}, "trained sensory panel [7]": {"system": "trained sensory panel", "experiment": "Potato chips tasting", "method": "Plain potato chips were prepared.\nOne part was flavoured with 1.2% sodium chloride (sample A),\nOne part was flavoured with 1.2% sodium chloride and 0.3% MSG (sample B),\nOne part was flavoured with 1.2% sodium chloride and 2 ppm of 1-(2-hydroxy-4-methylphenyl)-3-(pyridin-2-yl)propan-1-one (sample C).\n(§2) The samples were tasted by a trained sensory panel composed of 20 women aged between 30 and 60."}, "trained sensory panel [8]": {"system": "trained sensory panel", "experiment": "Comparative test with MSG: tasting of 0.3% NaCl / 0.03% MSG solution with compound", "conditions": "5 ppm compound in 0.3% NaCl and 0.03% MSG; Solution A without compound: salty, umami", "method": "Two solutions were prepared:\nA: a solution of 0.3% NaCl and 0.03% MSG,\nB: a solution of 0.3% NaCl, 0.03% MSG and 5 ppm of 1-(4-hydroxybenzo[d][1,3]dioxol-5-yl)-3-(pyridin-2-yl)propan-1-one.\nas §2"}, "[9]": {"conditions": "0.002% compound in model chicken broth, sugar added, Control 6th"}, "[10]": {"conditions": "0.001% compound in model chicken broth, Control 5th"}, "[11]": {"conditions": "0.002% compound in commercial organic chicken broth, Control 5th"}}, "data": [{"smiles": "Cc1cc(C)c(O)c(C(=O)CCc2ccccn2)c1", "note": "[1-(2-hydroxy-3,5-dimethylphenyl)3-(pyridine-2-yl)propan-1-one]", "values": [{"measurement": "Taste description", "setting": "trained sensory panel [1]", "value": "Umami"}]}, {"smiles": "Cc1cc(O)c(C(=O)CCc2ccccn2)cc1C", "note": "[1-(2-hydroxy-4,5-dimethylphenyl)-3-(pyridine-2-yl)propan-1-one]", "values": [{"measurement": "Performance when evaluating for umami", "setting": "bench-top tasting panel [2]; 0.002% compound in model chicken broth, sugar added", "value": "performed well"}, {"measurement": "Finishing position in blind ranking of 6 samples on umami", "setting": "bench-top tasting panel [2]; [9]", "value": 2}, {"measurement": "Level preferred by panelists in this base", "setting": "bench-top tasting panel [2]", "value": 0.002, "unit": "%"}, {"measurement": "Taste description", "setting": "trained sensory panel [1]", "value": "Umami, sweet, savoury, salty"}]}, {"smiles": "CC(C)COc1ccc(C(=O)CCc2ccccn2)c(O)c1", "note": "[1-(2-hydroxy-4-isobutoxyphenyl)-3-(pyridine-2-yl)propan-1-one]", "values": [{"measurement": "Finishing position in blind ranking of 6 samples on umami", "setting": "bench-top tasting panel [3]; [10]", "value": 4}, {"measurement": "Level preferred by panelists in this base", "setting": "bench-top tasting panel [3]", "value": 0.001, "unit": "%"}, {"measurement": "Taste of test soup compared with reference soup", "setting": "[4]", "value": "more umami, had a clear lingering effect, was more salty and was more complex"}, {"measurement": "Finishing position in blind ranking of 6 samples on umami", "setting": "bench-top tasting panel [2]; [9]", "value": 4}, {"measurement": "Level preferred by panelists in this base", "setting": "bench-top tasting panel [2]", "value": 0.002, "unit": "%"}, {"measurement": "Finishing position in blind ranking of 6 samples on umami", "setting": "bench-top tasting panel [5]; [11]", "value": 3}, {"measurement": "Level preferred by panelists in this base", "setting": "bench-top tasting panel [5]", "value": 0.002, "unit": "%"}, {"measurement": "Taste description", "setting": "trained sensory panel [1]", "value": "Umami, sweet, salty, bouillon, lingering,"}]}, {"smiles": "COc1ccc(C(=O)CCc2ccccn2)c(O)c1", "note": "[1-(2-hydroxy-4-methoxyphenyl)-3-(pyridin-2-yl)propan-1-one]", "values": [{"measurement": "Finishing position in blind ranking of 6 samples on umami", "setting": "bench-top tasting panel [3]; [10]", "value": 2}, {"measurement": "Level preferred by panelists in this base", "setting": "bench-top tasting panel [3]", "value": 0.001, "unit": "%"}, {"measurement": "Finishing position in blind ranking of 6 samples on umami", "setting": "bench-top tasting panel [2]; [9]", "value": 3}, {"measurement": "Level preferred by panelists in this base", "setting": "bench-top tasting panel [2]", "value": 0.002, "unit": "%"}, {"measurement": "Finishing position in blind ranking of 6 samples on umami", "setting": "bench-top tasting panel [5]; [11]", "value": 4}, {"measurement": "Level preferred by panelists in this base", "setting": "bench-top tasting panel [5]", "value": 0.002, "unit": "%"}, {"measurement": "Taste of test ketchup compared with ketchup without the compound", "setting": "[6]", "value": "clearly more umami, more salty and had a pleasant savoury note"}, {"measurement": "Taste description", "setting": "trained sensory panel [1]", "value": "umami, sweet, salty, longlasting"}]}, {"smiles": "Cc1ccc(C(=O)CCc2ccccn2)c(O)c1", "note": "[1-(2-hydroxy-4-methylphenyl)-3-(pyridin-2-yl)propan-1-one]", "values": [{"measurement": "Taste description (sample C)", "setting": "trained sensory panel [7]; potato chips with 1.2% sodium chloride and 2 ppm compound, sample A with salt only: salty", "value": "salty, strong umami, long lasting, savoury, bouillon"}, {"measurement": "Panel preference", "setting": "trained sensory panel [7]; potato chips, sample C (1.2% sodium chloride, 2 ppm compound) versus sample A (salt) and sample B (salt, 0.3% MSG)", "value": "preferred sample C over the other two samples"}, {"measurement": "Finishing position in blind ranking of 6 samples on umami", "setting": "bench-top tasting panel [3]; 0.0005% compound in model chicken broth, Control 5th", "value": 3}, {"measurement": "Level preferred by panelists in this base", "setting": "bench-top tasting panel [3]", "value": 0.0005, "unit": "%"}, {"measurement": "Finishing position in blind ranking of 6 samples on umami", "setting": "bench-top tasting panel [2]; 0.001% compound in model chicken broth, sugar added, Control 6th", "value": 5}, {"measurement": "Level preferred by panelists in this base", "setting": "bench-top tasting panel [2]", "value": 0.001, "unit": "%"}, {"measurement": "Finishing position in blind ranking of 6 samples on umami", "setting": "bench-top tasting panel [5]; 0.001% compound in commercial organic chicken broth, Control 5th", "value": 2}, {"measurement": "Level preferred by panelists in this base", "setting": "bench-top tasting panel [5]", "value": 0.001, "unit": "%"}, {"measurement": "Taste description", "setting": "trained sensory panel [1]", "value": "Umami, sweet, licorice, savoury"}]}, {"smiles": "Cc1ccc(O)c(C(=O)CCc2ccccn2)c1", "note": "[1-(2-hydroxy-5-methylphenyl)-3-(pyridine-2-yl)propan-1-one]", "values": [{"measurement": "Taste description", "setting": "trained sensory panel [1]", "value": "Umami"}]}, {"smiles": "Cc1cccnc1CCC(=O)c1ccccc1O", "note": "[1-(2-hydroxyphenyl)-3-(3-methylpyridin-2-yl)propan-1-one]", "values": [{"measurement": "Taste description", "setting": "trained sensory panel [1]", "value": "Slightly umami, savoury, meaty"}]}, {"smiles": "Cc1ccc(CCC(=O)c2ccccc2O)nc1", "note": "[1-(2-hydroxyphenyl)-3-(5-methylpyridin-2-yl)propan-1-one]", "values": [{"measurement": "Taste description", "setting": "trained sensory panel [1]", "value": "Slightly umami, some green aftertaste,"}]}, {"smiles": "COc1ccccc1C(=O)CCc1ccccn1", "note": "[1-(2-methoxyphenyl)-3-(pyridin-2-yl)propan-1-one]", "values": [{"measurement": "Taste description", "setting": "trained sensory panel [1]", "value": "Umami, slightly bitter"}]}, {"smiles": "O=C(CCc1ccccn1)c1ccc(OC2CCCC2)cc1O", "note": "[1-(4-(cyclopentyloxy)-2-hydroxyphenyl)-3-(pyridine-2-yl)propan-1-one]", "values": [{"measurement": "Taste description", "setting": "trained sensory panel [1]", "value": "Umami"}]}, {"smiles": "O=C(CCc1ccccn1)c1ccc(OCC2CC2)cc1O", "note": "[1-(4-cyclopropylmethoxy)-2-hydroxyphenyl)-3-(pyridine-2-yl)propan-1-one]", "values": [{"measurement": "Taste description", "setting": "trained sensory panel [1]", "value": "Umami"}]}, {"smiles": "CCOc1ccc(C(=O)CCc2ccccn2)c(O)c1", "note": "[1-(4-ethoxy-2-hydroxyphenyl)-3-(pyridine-2-yl)propan-1-one]", "values": [{"measurement": "Taste description", "setting": "trained sensory panel [1]", "value": "Umami, floral"}]}, {"smiles": "O=C(CCc1ccccn1)c1ccc2c(c1O)OCO2", "note": "[1-(4-hydroxybenzo[d][1,3]dioxol-5-yl)-3-(pyridin-2-yl)propan-1-one]", "values": [{"measurement": "Taste description (Solution B)", "setting": "trained sensory panel [8]", "value": "salty, umami, more bouillon-like, more complex, less sweet"}, {"measurement": "Taste description", "setting": "trained sensory panel [1]", "value": "Clearly umami, slightly yeasty, bouillon"}]}, {"smiles": "CCc1ccc(O)c(C(=O)CCc2ccccn2)c1", "note": "[1-(5-ethyl-2-hydroxyphenyl)-3-(pyridine-2-yl)propan-1-one]", "values": [{"measurement": "Taste description", "setting": "trained sensory panel [1]", "value": "Umami, slightly bitter"}]}, {"smiles": "N[C@@H](CCC(=O)O)C(=O)[O-].[Na+]", "note": "[MSG, monosodium glutamate, reference compound]", "values": [{"measurement": "Taste description (sample B)", "setting": "trained sensory panel [7]; potato chips with 1.2% sodium chloride and 0.3% MSG", "value": "salty and umami"}, {"measurement": "Finishing position in blind ranking of 6 samples on umami", "setting": "bench-top tasting panel [3]; 0.05% MSG (Reference) in model chicken broth", "value": "highest umami"}, {"measurement": "Finishing position in blind ranking of 6 samples on umami", "setting": "bench-top tasting panel [2]; 0.05% MSG (Reference) in model chicken broth, sugar added", "value": "highest umami"}, {"measurement": "Finishing position in blind ranking of 6 samples on umami", "setting": "bench-top tasting panel [5]; 0.05% MSG (Reference) in commercial organic chicken broth", "value": "highest umami"}]}]}
